Data: patent US5262435A, “Cholesterol lowering compounds” (Merck & Co., Inc., priority 1992, dated 1993)

Biological target: T1, squalene synthetase (Rattus norvegicus, UniProt Q02769)
T1 construct: from tissue; host or cells: rat liver microsomes (lovastatin-fed male Charles River CD rats)
T1 sequence (Q02769 1-416): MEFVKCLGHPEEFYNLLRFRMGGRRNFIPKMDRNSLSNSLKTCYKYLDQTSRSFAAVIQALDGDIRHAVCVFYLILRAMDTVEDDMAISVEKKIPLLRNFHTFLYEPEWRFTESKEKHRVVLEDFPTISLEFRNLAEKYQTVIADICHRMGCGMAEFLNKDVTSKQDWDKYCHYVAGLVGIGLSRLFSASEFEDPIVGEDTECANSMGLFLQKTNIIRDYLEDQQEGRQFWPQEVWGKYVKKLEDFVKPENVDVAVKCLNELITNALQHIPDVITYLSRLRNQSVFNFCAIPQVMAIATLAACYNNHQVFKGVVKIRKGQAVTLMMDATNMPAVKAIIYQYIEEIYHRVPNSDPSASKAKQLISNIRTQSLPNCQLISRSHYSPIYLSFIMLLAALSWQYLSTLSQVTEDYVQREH
Assay: Squalene synthetase assay (rat liver microsomes, [4-14C]farnesyl-pyrophosphate)
Format: biochemical
Settings: rat liver microsomal protein, 30° C., 20 minutes; read-out: IC50 squalene synthetase inhibition
Experimental: The intrinsic squalene synthetase inhibitory activity of representative compounds of this invention was measured by the standard in vitro protocol described below:
Male, Charles River CD rats (120 to 150 g) were fed a diet containing 0.1% lovastatin for 4 days. The livers from these rats were homogenized in 5 volumes (ml/g) of ice cold 50 Mm HEPES (4-(2-hydroxyethyl)-1-piperazine-ethanesulfonic acid), 5 mM EDTA(ethylenediaminetetraacetic acid) pH 7.5 with a Potter-Elvehjem type tissue grinder. The homogenate was centrifuged twice at 20,000×g for 15 minutes at 4,C, discarding the pellet each time. The supernatant was then centrifuged at 100,000×g for 1 hour at 4° C. The resulting microsomal pellet was resuspended in a volume of the above homogenizing buffer equal to one-fifth the volume of the original homogenate. This microsomal preparation has a protein concentration of about 7 mg/ml. The microsomal suspensions were stored in aliquots at -70° C. Squalene synthetase activity in these aliquots is stable for at least several months. […]
This assay mix was degassed under a vacuum and flushed with N2. […] Ten ml of scintillation fluid was added to the heptane solution and radioactivity was determined by liquid scintillation counting. […]
IC50 values were determined by plotting the log of the concentration of the test compound versus the percentage inhibition. […]

IC50: 0.95 nM
SMILES: C=C(CC[C@@]12C[C@@H](OC(=O)/C=C/C(C)CC(C)CC)[C@@](C(=O)O)(O1)[C@](O)(C(=O)O)[C@@H](C(=O)O)O2)C(OC(C)=O)C(C)Cc1ccccc1 (stereo partly shown) [Compound A]
